The values that follow come from patent US20210002262A1, “CYANOPYRROLIDINES AS USP30 INHIBITORS AND FIBROSIS TREATMENT” (MISSION THERAPEUTICS LIMITED, priority 2018, published 2021).

A word on the IC50: it is the midpoint of a concentration-inhibition curve. Read a low IC50 as higher potency.

“Also recorded” adds a separate entry of the source.

The test system of one series is Unilateral ureteral obstruction (UUO) kidney fibrosis. The experiment in a line: Unilateral ureteral obstructive kidney disease model (UUO). Particulars: UUO, 20 mg/kg IN-1130 QD IP, days 0 to 10. It counts as in vivo. The source says:
In this study, adult C57B16 female mice at 7 to 8 weeks of age with average weight of around 18 to 20 g were used. To complete the ureteral obstruction, the abdominal cavity was exposed via a midline incision and the left ureter was ligated at two points with 4-0 silk and dissected. Successful unilateral ureteral obstruction was later confirmed by observation of dilation of the renal pelvis due to hydronephrosis.
At harvest, mice were anesthetised and both kidneys were harvested; the contralateral kidney serves as control for the UUO kidney. The kidneys were dissected along median line into two parts, of which one side was fixed in formaldehyde, for paraffin embedding and the other was snap frozen for protein or RNA isolation.
Formalin fixed tissue were embedded in paraffin blocks and cut into 5 μm sections. All damaged kidneys, 5 contralateral kidneys from each group and 3 sham kidneys were analysed (in total n=80 kidney samples). Picrosirius Red and α-SMA stain was performed to evaluate fibrotic changes and myofibroblast activation. Analysis was performed by a pathology trained technical staff member, without knowledge of the animal group assignment. High magnification images were taken of each slide an analysed for the surface area covered by the stain.
The compound `Cc1cccc(-c2[nH]c(Cc3cccc(C(N)=O)c3)nc2-c2ccc3nccnc3c2)n1` [IN-1130, reference compound] showed an In life mortality of 0%.

For a further series, the target named is T1, USP30 (Homo sapiens, UniProt Q70CQ3).
T1 sequence (Q70CQ3 1-517): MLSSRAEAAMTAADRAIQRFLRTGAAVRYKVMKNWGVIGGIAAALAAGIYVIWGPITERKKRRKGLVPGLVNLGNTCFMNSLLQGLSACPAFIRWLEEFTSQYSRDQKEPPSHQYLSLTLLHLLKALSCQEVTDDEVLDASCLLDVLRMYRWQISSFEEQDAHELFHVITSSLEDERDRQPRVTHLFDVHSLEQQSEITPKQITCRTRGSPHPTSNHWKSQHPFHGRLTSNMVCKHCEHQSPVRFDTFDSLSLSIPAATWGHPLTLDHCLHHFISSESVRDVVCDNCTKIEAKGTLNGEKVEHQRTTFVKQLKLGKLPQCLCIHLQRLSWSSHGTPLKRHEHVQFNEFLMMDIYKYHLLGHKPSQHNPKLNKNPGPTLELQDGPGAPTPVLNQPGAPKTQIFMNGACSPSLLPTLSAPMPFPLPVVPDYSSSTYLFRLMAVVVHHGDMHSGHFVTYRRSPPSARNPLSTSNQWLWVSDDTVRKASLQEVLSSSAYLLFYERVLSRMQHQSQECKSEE
Kind of series: USP30 biochemical IC50 assay.
Details: not given
On the procedure:
Dilution plates were prepared at 21 times the final concentration (2100 μM for a final concentration of 100 μM) in 50% DMSO in a 96-well polypropylene V-bottom plate (Greiner #651201). A typical 8-point dilution series would be 100, 30, 10, 3, 1, 0.3, 0.1, 0.03 μM final. Reactions were performed in duplicate in black 384 well plates (small volume, Greiner 784076) in a final reaction volume of 21 μl. Either 1 μl of 50% DMSO or diluted compound was added to the plate. USP30 was diluted in reaction buffer (40 mM Tris, pH 7.5, 0.005% Tween 20, 0.5 mg/ml BSA, 5 mM beta-mercaptoethanol) to the equivalent of 0.05 μl/well and 10 μl of diluted USP30 was added to the compound. Enzyme and compound were incubated for 30 min at room temp. Reactions were initiated by the addition of 50 nM of TAMRA labelled peptide linked to ubiquitin via an iso-peptide bond as fluorescence polarisation substrate. Reactions were read immediately after addition of substrate and following a 2-hour incubation at room temperature. Readings were performed on a Pherastar Plus (BMG Labtech). λ Excitation 540 nm; λ Emission 590 nm.
Compound `C[C@@H]1C(CNC(=O)c2ncn(-c3cccc(C#N)c3)n2)CCN1C#N` (mixture of isomers) [Example 4, N-(((2R,3R)-1-cyano-2-methylpyrrolidin-3-yl)methyl)-1-(3-cyanophenyl)-1H-1,2,4-triazole-3-carboxamide and N-(((2R,3S)-1-cyano-2-methylpyrrolidin-3-yl)methyl)-1-(3-cyanophenyl)-1H-1,2,4-triazole-3-carboxamide] had an IC50 of 10 to 100 nM.

`N#CN1CCC(CNC(=O)c2ncn(-c3ccccc3)n2)C1` (stereo not shown) [Example 3, N-((1-cyanopyrrolidin-3-yl)methyl)-1-phenyl-1H-1,2,4-triazole-3-carboxamide] yielded a half-inhibitory concentration (IC50) of 100 to 1000 nM.

`N#CN1CC[C@H](CNC(=O)c2cn(-c3cccc(Cl)c3)nn2)C1` [Example 6, (R)-1-(3-chlorophenyl)-N-((1-cyanopyrrolidin-3-yl)methyl)-1H-1,2,3-triazole-4-carboxamide] showed a half-inhibitory concentration (IC50) of 100 to 1000 nM.

`N#CN1CC[C@H](CNC(=O)c2cnn(-c3cccc(Cl)c3)n2)C1` [Example 7, (R)-2-(3-chlorophenyl)-N-((1-cyanopyrrolidin-3-yl)methyl)-2H-1,2,3-triazole-4-carboxamide] yielded an IC50 of under 10 nM.

The same series, now with this note: Examples of WO 2017/103614.
With `N#CN1CC[C@H](CNc2ncc(-c3ccccc3)s2)C1` [Example 9, (R)-3-(((5-phenylthiazol-2-yl)amino)methyl)pyrrolidine-1-carbonitrile], the concentration for half-maximal inhibition (IC50) was in the range of 10 to 100 nM.

As for `N#CN1CCC(CNC(=O)c2cnc(-c3ccccc3)o2)C1` (stereo not shown) [Example 20, N-((1-cyanopyrrolidin-3-yl)methyl)-2-phenyloxazole-5-carboxamide], the IC50 was in the range of 100 to 1000 nM.

Compound `N#CN1CCC(CNC(=O)c2cc(-c3ccccc3)no2)C1` (stereo not shown) [Example 21, N-((1-cyanopyrrolidin-3-yl)methyl)-3-phenylisoxazole-5-carboxamide] displayed an IC50 of 100 to 1000 nM.

For the compound `N#CN1CCC(CNC(=O)c2cc(-c3ccccc3)[nH]n2)C1` (stereo not shown) [Example 22, N-((1-cyanopyrrolidin-3-yl)methyl)-5-phenyl-1H-pyrazole-3-carboxamide], the IC50 fell in the range of 100 to 1000 nM.

In the case of `N#CN1CCC(CNC(=O)c2csc(-c3ccccc3)n2)C1` (stereo not shown) [Example 26, N-((1-cyanopyrrolidin-3-yl)methyl)-2-phenylthiazole-4-carboxamide], the IC50 lay in the range of 100 to 1000 nM.

`N#CN1CCC(CNC(=O)c2cc(-c3ccccc3F)n[nH]2)C1` (stereo not shown) [Example 31, N-((1-cyanopyrrolidin-3-yl)methyl)-3-(2-fluorophenyl)-1H-pyrazole-5-carboxamide] gave an IC50 of 100 to 1000 nM.

The compound `N#CN1CCC(CNC(=O)c2ncc(-c3ccccc3)o2)C1` (stereo not shown) [Example 38, N-((1-cyanopyrrolidin-3-yl)methyl)-5-phenyloxazole-2-carboxamide] registered an IC50 of 100 to 1000 nM.

In the case of `N#CN1CC[C@H](CNC(=O)c2cc(-c3cccc(Cl)c3)no2)C1` [Example 55, (R)-3-(3-chlorophenyl)-N-((1-cyanopyrrolidin-3-yl)methyl)isoxazole-5-carboxamide], the half-inhibitory concentration (IC50) fell in the range of 10 to 100 nM.

The compound `N#CN1CC[C@H](CNC(=O)c2cc(-c3ccccc3)on2)C1` [Example 58, (R)-N-((1-cyanopyrrolidin-3-yl)methyl)-5-phenylisoxazole-3-carboxamide] gave an IC50 of 100 to 1000 nM.

As for `N#CN1CC[C@H](CNC(=O)c2nc(-c3ccccc3)cs2)C1` [Example 62, (R)-N-((1-cyanopyrrolidin-3-yl)methyl)-4-phenylthiazole-2-carboxamide], the IC50 lay in the range of 100 to 1000 nM.

`N#CN1CC[C@H](CNC(=O)c2ccn(-c3ccccc3)n2)C1` [Example 63, (R)-N-((1-cyanopyrrolidin-3-yl)methyl)-1-phenyl-1H-pyrazole-3-carboxamide] registered an IC50 of 100 to 1000 nM.

On to `N#CN1CC[C@H](CNC(=O)c2cnc(-c3ccccc3)[nH]2)C1` [Example 64, (R)-N-((1-cyanopyrrolidin-3-yl)methyl)-2-phenyl-1H-imidazole-5-carboxamide], for which the half-maximal inhibitory concentration (IC50) lay in the range of 100 to 1000 nM.

The compound `N#CN1CC[C@H](CNC(=O)c2cc(-c3ccccc3Cl)no2)C1` [Example 66, (R)-3-(2-chlorophenyl)-N-((1-cyanopyrrolidin-3-yl)methyl)isoxazole-5-carboxamide] registered a 50% inhibitory concentration (IC50) of 100 to 1000 nM.

`N#CN1CC[C@H](CNC(=O)c2cc(-c3ccc(Cl)cc3)no2)C1` [Example 67, (R)-3-(4-chlorophenyl)-N-((1-cyanopyrrolidin-3-yl)methyl)isoxazole-5-carboxamide]: the half-maximal inhibitory concentration (IC50) fell in the range of 100 to 1000 nM.

`N#Cc1cccc(-c2nnc(C(=O)NC[C@@H]3CCN(C#N)C3)o2)c1` [Example 69, (S)-5-(3-cyanophenyl)-N-((1-cyanopyrrolidin-3-yl)methyl)-1,3,4-oxadiazole-2-carboxamide]: the IC50 was 10 to 100 nM.

The compound `N#Cc1cccc(-n2cnc(C(=O)NC[C@H]3CCN(C#N)C3)c2)c1` [Example 71, (R)-1-(3-cyanophenyl)-N-((1-cyanopyrrolidin-3-yl)methyl)-1H-imidazole-4-carboxamide] came in with an IC50 of 10 to 100 nM.

For `N#Cc1ccc(-n2cnc(C(=O)NC[C@H]3CCN(C#N)C3)c2)cc1` [Example 72, (R)-1-(4-cyanophenyl)-N-((1-cyanopyrrolidin-3-yl)methyl)-1H-imidazole-4-carboxamide], the IC50 lay within 100 to 1000 nM.

The subject of a further series is diet-induced NAFLD/NASH. Kind of series: Diet-induced model of NAFLD/NASH. The class given is in vivo, mice. Particulars: diet-induced NAFLD/NASH, P.O., 8 weeks; Elafibranor 30 mg/kg QD. On the procedure:
Mice were fed Amylin-diet (D09100301, Research Diets, US; 40% fat (18% trans-fat), 40% carbohydrate (20% fructose) and 2% cholesterol) for 37 weeks. Liver biopies were harvested and mice were randomization into treatment groups based on liver Colla1 quantification. Three weeks following biopsy surgery, study animals were dosed orally (P.O.) with either; Vehicle (0.5% HPMC/0.5% PVP/0.1% SDS nanosuspension), MT#1 @ 15 mg/kg QD or MT#1 @ […] QD […] or with Elafibranor @ 30 mg/kg QD (positive control) for eight (8) weeks. A control group of age- and sex-matched mice fed lean chow diet ad libitum were also administered vehicle (P.O) over the same 8 (eight) week period. Following the full dosing schedule, mice were sacrificed, whole livers resected and weighed, fixed in paraformaldehyde before being paraffin embedded. H&E stained slides were then prepared and the average % fractional area of lipid vacuoles (steatosis) determined for each section (@ 20×objective) using Visiomorph software (Visophram, Denmark). The average % fractional area was multiplied by the total liver weight to determine the total liver lipid content per animal. Values expressed as mean of n=9-12+SEM. Dunnett's test one-factor linear model. **: P<0.01, ***: P<0.001 compared to DIO-NASH Vehicle.
Summary of fibrosis stage scores of pre- and post-study liver biopsies harvested from the diet-induced NAFLD/NASH study. Fibrosis stage scores are determined by assessment of picosirius red stained liver sections for relative appearance and location of collagen staining, where; 0=No staining, 1=Perisinusoidal or periportal, 2=Perisinusoidal and periportal and […]=Bridging collagen staining observed. For each group of animals with higher (worsening), same or lower (improvement) in score at post-compared to pre-study is indicated by the height of the bar. One-sided Fisher's exact test with Bonferroni correction. No differences at significance level 0.05.
As for `CSc1ccc(C(=O)/C=C/c2cc(C)c(OC(C)(C)C(=O)O)c(C)c2)cc1` [Elafibranor, reference compound], the “fibrotic stage scores (picosirius red stained liver sections, post- compared to pre-study biopsy)” value is given as “Neither MT#1 or Elafibranor (positive control) significantly improved; also recorded: failed to statistically improve” and the liver steatosis result was “significantly reducing”.

A further series concerns Bleomycin-induced lung fibrosis. Kind of series: Bleomycin-induced lung fibrosis model. Particulars: 100 mg/kg pirfenidone BID, oral, days 7 to 21, bleomycin 1.5 U/kg.
Procedure: Treatment group animals (n=10/group) received 1.5 U/kg of clinical bleomycin via oropharyngeal route on day 0 under inhalant anaesthesia. Animals were monitored for tolerance of the bleomycin administration procedure and subsequently bodyweights of all mice were recorded at least 3 times per week during the study. […] All treatments were administered orally.
At day 21, lungs were harvested from each animal and weighed, followed by fixation in 10% neutral buffered formalin (NBF) for histopathological analysis. The lung samples were processed and embedded with all lobes from each mouse in one paraffin block. Coronal sections through the four major lobes were stained with Masson's Trichrome. For each animal, consecutive lung fields were examined at 200×magnification in a raster pattern using a 20×objective lens and a 10×ocular lens. […] The Fibrotic Index was calculated as the sum of the modified Ashcroft field scores divided by the number of fields examined.
In the case of `Cc1ccc(=O)n(-c2ccccc2)c1` [pirfenidone, reference compound], the In life mortality was found to be 0%.
